Common to all, as to test: relative viability (nuclei count vs DMSO), 5 days (fraction); higher = more cells survive
Compound in experiment [1]: CC1=CC(=CC=C1)NC2=NC(=CS2)C3=CC=NC=C3 + C[C@@H](Oc1cc(-c2cnn(C3CCNCC3)c2)cnc1N)c1c(Cl)ccc(F)c1Cl [Crizotinib] (partner 1 µM)
In outline: (§1)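 Relative viability divides the nuclei count in treated wells by that in vehicle wells. Lung cancer cell lines were seeded in 1536-well plates, dosed by pin tool the next day, and fixed and stained after 5 days in one step with final 0.05% Triton X-100, 1% formaldehyde and 1 ug/ml Hoechst. Dosing was a single drug or a fixed anchor-drug dose plus five library-drug doses (not always all listed) in √10 steps, and values are medians of duplicate plates imaged at 4×.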

Compound in experiment [2]: CC1=CC(=CC=C1)NC2=NC(=CS2)C3=CC=NC=C3 + Nc1nc2[nH]cc(CCc3ccc(C(=O)N[C@@H](CCC(=O)O)C(=O)O)cc3)c2c(=O)[nH]1 [Pemetrexed] (partner 0.2 µM)
Put shortly: as §1

Compound in experiment [3]: Cc1ccc(NC(=O)c2ccc(CN3CCN(C)CC3)cc2)cc1Nc1nc(-c2cccnc2)cs1 [Masitinib] + COc1cccc2cc(-c3nc([C@H]4CC[C@H](C(=O)O)CC4)n4ncnc(N)c34)[nH]c12 [OSI-027] (partner 0.5 µM)
In outline:
as §1

Compound in experiment [4]: CC1=CC(=CC=C1)NC2=NC(=CS2)C3=CC=NC=C3 + CCNC(=O)c1noc(-c2cc(C(C)C)c(O)cc2O)c1-c1ccc(CN2CCOCC2)cc1 [Luminespib] (partner 0.01 µM)
In outline: as §1

Regarding Calu-6, the relative viability in experiment [1] (first compound 0.08 µM) was 0.698; in experiment [1] (first compound 0.253 µM) it was 0.639; in experiment [1] (first compound 0.8 µM) it was 0.619; in experiment [1] (first compound 2.53 µM), 0.634; in experiment [1] (first compound 8 µM), 0.727.
For ChaGo-K-1, the relative viability is 0.259 in experiment [2] (first compound 0.08 µM); 0.272 in experiment [2] (first compound 0.253 µM); 0.249 in experiment [2] (first compound 0.8 µM); 0.266 in experiment [2] (first compound 2.53 µM); 0.252 in experiment [2] (first compound 8 µM); 0.779 in experiment [3] (first compound 0.01 µM). Besides, the relative viability in experiment [3] (first compound 0.03162 µM) is 0.537; in experiment [3] (first compound 0.1 µM) it was 0.603; in experiment [3] (first compound 0.3162 µM) it was 0.695; in experiment [3] (first compound 1 µM), 0.538; in experiment [1] (first compound 0.08 µM), 1.08; in experiment [1] (first compound 0.253 µM), 1.07. Further, the relative viability in experiment [1] (first compound 0.8 µM) turned out to be 1.14; in experiment [1] (first compound 2.53 µM) it was 1.07; in experiment [1] (first compound 8 µM), 1.15; in experiment [4] (first compound 0.08 µM), 0.525; in experiment [4] (first compound 0.253 µM), 0.605; in experiment [4] (first compound 0.8 µM) it was 0.57. In addition, the relative viability in experiment [4] (first compound 2.53 µM) came to 0.589; in experiment [4] (first compound 8 µM), 0.372.
EBC-1: the relative viability in experiment [1] (first compound 0.08 µM) came to 0.176; in experiment [1] (first compound 0.253 µM), 0.218; in experiment [1] (first compound 0.8 µM), 0.198; in experiment [1] (first compound 2.53 µM), 0.17; in experiment [1] (first compound 8 µM) it was 0.163.
With EKVX, the relative viability worked out at 0.361 in experiment [2] (first compound 0.08 µM); 0.333 in experiment [2] (first compound 0.253 µM); 0.32 in experiment [2] (first compound 2.53 µM); 0.328 in experiment [2] (first compound 8 µM); 0.533 in experiment [3] (first compound 0.03162 µM); 0.566 in experiment [3] (first compound 0.1 µM). In addition, the relative viability in experiment [3] (first compound 0.3162 µM) came out at 0.673; in experiment [3] (first compound 1 µM), 0.599; in experiment [1] (first compound 0.08 µM) it was 0.907; in experiment [1] (first compound 0.253 µM), 0.893; in experiment [1] (first compound 0.8 µM), 0.795; in experiment [1] (first compound 2.53 µM) it was 0.801. For the same cell line, the relative viability in experiment [1] (first compound 8 µM) came out at 0.497; in experiment [4] (first compound 0.08 µM) it was 0.854; in experiment [4] (first compound 0.253 µM), 0.835; in experiment [4] (first compound 0.8 µM), 0.892; in experiment [4] (first compound 2.53 µM), 0.819; in experiment [4] (first compound 8 µM), 0.765.
EMC-BAC-2: the relative viability in experiment [2] (first compound 0.08 µM) is 0.393; in experiment [2] (first compound 0.253 µM), 0.402; in experiment [2] (first compound 0.8 µM), 0.413; in experiment [2] (first compound 2.53 µM), 0.432; in experiment [2] (first compound 8 µM) it was 0.393; in experiment [3] (first compound 0.01 µM), 0.379. Further, the relative viability in experiment [3] (first compound 0.03162 µM) was found to be 0.381; in experiment [3] (first compound 0.1 µM), 0.379; in experiment [3] (first compound 0.3162 µM), 0.379; in experiment [3] (first compound 1 µM), 0.354; in experiment [1] (first compound 0.08 µM) it was 0.642; in experiment [1] (first compound 0.253 µM), 0.7. The relative viability is 0.717 in experiment [1] (first compound 0.8 µM); 0.643 in experiment [1] (first compound 2.53 µM); 0.729 in experiment [1] (first compound 8 µM); 1.15 in experiment [4] (first compound 0.08 µM); 1.23 in experiment [4] (first compound 0.253 µM); 1.15 in experiment [4] (first compound 0.8 µM). The relative viability worked out at 1.1 in experiment [4] (first compound 2.53 µM) and 1.13 in experiment [4] (first compound 8 µM).
Consider EPLC-272H, for which the relative viability in experiment [2] (first compound 0.08 µM) amounted to 0.404; in experiment [2] (first compound 0.253 µM) it was 0.375; in experiment [2] (first compound 0.8 µM), 0.264; in experiment [2] (first compound 2.53 µM), 0.31; in experiment [2] (first compound 8 µM), 0.332; in experiment [3] (first compound 0.01 µM), 0.257. Moreover, the relative viability in experiment [3] (first compound 0.03162 µM) worked out at 0.274; in experiment [3] (first compound 0.1 µM) it was 0.281; in experiment [3] (first compound 0.3162 µM) it was 0.315; in experiment [3] (first compound 1 µM), 0.286; in experiment [1] (first compound 0.08 µM), 0.854; in experiment [1] (first compound 0.8 µM) it was 0.877. Besides, the relative viability came to 0.885 in experiment [1] (first compound 8 µM); 0.194 in experiment [4] (first compound 0.08 µM); 0.359 in experiment [4] (first compound 0.253 µM); 0.218 in experiment [4] (first compound 0.8 µM); 0.245 in experiment [4] (first compound 2.53 µM); 0.389 in experiment [4] (first compound 8 µM).
Turning to H3255, the relative viability came to 0.585 in experiment [2] (first compound 0.08 µM); 0.546 in experiment [2] (first compound 0.253 µM); 0.568 in experiment [2] (first compound 0.8 µM); 0.54 in experiment [2] (first compound 2.53 µM); 0.54 in experiment [2] (first compound 8 µM); 0.588 in experiment [3] (first compound 0.01 µM). For the same cell line, the relative viability turned out to be 0.652 in experiment [3] (first compound 0.03162 µM); 0.617 in experiment [3] (first compound 0.1 µM); 0.504 in experiment [3] (first compound 0.3162 µM); 0.538 in experiment [3] (first compound 1 µM); 0.721 in experiment [1] (first compound 0.08 µM); 0.926 in experiment [1] (first compound 0.253 µM). Moreover, the relative viability in experiment [1] (first compound 0.8 µM) came out at 0.821; in experiment [1] (first compound 2.53 µM), 0.795; in experiment [1] (first compound 8 µM), 0.853; in experiment [4] (first compound 0.08 µM) it was 0.902; in experiment [4] (first compound 0.253 µM) it was 0.681; in experiment [4] (first compound 0.8 µM) it was 0.905. Also, the relative viability in experiment [4] (first compound 2.53 µM) is 0.702; in experiment [4] (first compound 8 µM) it was 0.826.
Take HARA: the relative viability worked out at 0.267 in experiment [2] (first compound 0.08 µM); 0.22 in experiment [2] (first compound 0.253 µM); 0.203 in experiment [2] (first compound 0.8 µM); 0.255 in experiment [2] (first compound 2.53 µM); 0.276 in experiment [2] (first compound 8 µM); 0.44 in experiment [3] (first compound 0.03162 µM). Also, the relative viability was found to be 0.521 in experiment [3] (first compound 0.1 µM); 0.384 in experiment [3] (first compound 0.3162 µM); 0.315 in experiment [3] (first compound 1 µM); 0.804 in experiment [1] (first compound 0.08 µM); 1 in experiment [1] (first compound 0.253 µM); 0.994 in experiment [1] (first compound 0.8 µM). The relative viability is 0.998 in experiment [1] (first compound 2.53 µM); 0.986 in experiment [1] (first compound 8 µM); 0.494 in experiment [4] (first compound 0.08 µM); 0.872 in experiment [4] (first compound 0.253 µM); 0.496 in experiment [4] (first compound 0.8 µM); 0.684 in experiment [4] (first compound 2.53 µM). In experiment [4] (first compound 8 µM), the relative viability worked out at 0.359.

The record behind these values is the supplement of paper PMC10307832.
